Data on 3 compounds can be found in US7495105B2, “Non-racemic mixtures of (S) and (R) enantiomers of N-(2,6-dimethylphenyl)-1-propyl-2-piperidinocarboxamide; related processes and pharmaceutical compositions” (Cristalia Produtos Quimicos Farmaceuticos Ltda., priority 2001, dated 2009).

Marks after values point to notes of the source that are not given here.

Series [1] has as its system isolated heart of the rat. Briefly: Effects in the electrical activity (ECG) in isolated heart of the rat (Langendorff modified). The settings on record: for cardiac toxicity (cardiotoxicity) in relation to ropivacaine: conclusion from isolated rat heart. An excerpt:
In the experiments “in vitro”, adult male Wistar rats were used, weighing from 200 up to 350 g. The animals were slaughtered under anesthesia with ethyl ether. Thereafter, the heart was quickly removed and immersed, at room temperature, on Tyrode solution, composed in mM: NaCl, 120; KCl, 5.4; MgCl2, 1.2; CaCl2, 1.25; NaH2PO4, 2.0; NaHCO3, 27; Glucose, 11. The pH of this solution was adjusted to 7.4±0.02, under bubbling with carbogenic mixture (95% of O2 and 5% of CO2).
The heart was fixed, through the aorta, to a metallic tube and the latter was connected to a peristaltic pump (Milan^R). In order to maintain the feasibility of the preparation, the heart was perfused with a Tyrode solution at a flow of 8 ml.min^−1 maintained at 37° C. The drugs tested were diluted in the perfusion solution in the desired concentration. Thereafter, the heart was immersed in a recipient containing 150 ml of Tyrode solution maintained at 37° C. For registration of the ECG, three pipettes (electrodes), filled in with KCl 1M were positioned inside the chamber, the nearest possible to the heart. The electrical signals generated by the heart were amplified (Amplifier type 3A9) and registered in polygraph (Gould Brush mod.2400). After stabilization of the preparation, the experimental protocol with the infusion of ALs in crescent concentrations (0.1 a 10 μM), at intervals of 5 minutes between them, was started. The heart was perfused during 5 minutes for each concentration. Only one drug was tested for each heart.
The ECG was continuously registered in the absence (control) and in the presence of drugs for analysis. After the infusion of the last concentration, the preparation was washed during 30 minutes with the Tyrode solution without the AL, aiming to evaluate the reversibility of the effect of the drug.

The test system of series [2] is Muscular Activity of the Gastrocnemic Muscle of the Rat. The series can be described thus: Study in motor nervous conduction: gastrocnemius muscle shocks induced by electrical stimulation of the sciatic nerve. The series is classed as in vivo. The settings on record: for IC50 (%) - concentration that inhibits 50% of the amplitude of muscular shocks: 0.1 ml applied to sciatic nerve, stimulation 0.2 Hz, anesthetized Wistar rats; for Power relative to S (−) ropivacaine: from IC50 of gastrocnemic muscle shocks. Here is the method: Wistar male rats, weighing from 180 up to 250 g were under anesthesia with sodium pentobarbital (50 mg.kg^1) via i.p. After being submitted to tracheotomy and mechanically ventilated (Harvad Apparatus mod. 681), the animals were positioned on a surgical table (C. F. Palmer), on ventral decubital, and the four paws were fixed onto the surgical table. In the posterior face and near the back paw, the sciatic nerve was carefully dissected on both paws. A pair of platinum electrodes was fixed on the portion near the nerve and connected to a stimulator Grass mod.S88. Thereafter, the Achilles tendon was isolated and fixed to the isometric tension transducer (Grass FT03) by means of a metallic rod. […] 7). The body temperature was constant during the experiment. After stabilization of the preparation, the muscular shocks were registered in the absence (salty) and in the presence of increasing doses of LAs added in the proximity of the nerve. For each test, the anesthetic that socked the nerve was of 0.1 ml. The solutions were solved in physiologic serum at 0.9%, currently the experiment is maintained at 37° C. temperature.
Particularly, in this register, ropivacaine (S(−)ropi) and the non-racemic mixture (25R:75S) were administered in the perineural region. It should be noted the difference in the power and speed action between the anesthetic. In this figure, gastrocnemic shocks of the muscle were induced by electrical stimulation of the sciatic nerve. The segment of this nerve situated in the distal portion to the stimulation electrodes was soaked with 0.1 ml ropivacaine or with the non-racemic mixture of ropivacaine […] in the concentration of 0.06%. The reduction of the amplitude of the muscular shocks is a function of the number of nervous motor fibers under effective action of the anesthetics.
The concentration that inhibits 50% of the amplitude of muscular shocks (IC50) seeks is used for comparative purposes of the power between anesthetics.

For series [3] the following is noted: spinal anesthesia; Gautier et al. 1999; cited from earlier work.
Where [4] appears, read: 0.1 to 10 μM, 6 experiments, FIG. 4.

In the case of `CCCN1CCCCC1C(=O)Nc1c(C)cccc1C` (racemic) [RS (±) Ropi, (R,S)-N-(2,6-dimethylphenyl)-1-propyl-2-piperidinocarboxamide], in series [1] (setting [4]), the “effect on CF (cardiac frequency)” value is given as “greater depressors effect of CF” and the “effect on PR interval” value was “increase in PR interval”. The “cardiac toxicity (cardiotoxicity) in relation to ropivacaine” value in series [1] is reported as “significantly higher cardiotoxicity”. Also, in series [2], the “IC50 (%) - concentration that inhibits 50% of the amplitude of muscular shocks” value is recorded as 0.036* % and the “Power relative to S (−) ropivacaine” value is on record as 1.94*. The “power (motor blocking) greater in comparison with ropivacaine” value in series [2] (motor blocking, versus pure ropivacaine) is reported as around 90%.
On to `CCCN1CCCC[C@@H]1C(=O)Nc1c(C)cccc1C` [R (+) Ropi, (R)-N-(2,6-dimethylphenyl)-1-propyl-2-piperidinocarboxamide], for which, in series [1] (setting [4]), the “effect on CF (cardiac frequency)” value is “greater depressors effect of CF” and the “effect on PR interval” value is “increase in PR interval”. Moreover, the “cardiac toxicity (cardiotoxicity) in relation to ropivacaine” value in series [1] is on record as “significantly higher cardiotoxicity”. For the same compound, the “effect on ECG of isolated heart” value in series [1] (perfusion with 1 μM) is “important blocking of the cardiac vessel”. Besides, in series [2], the “IC50 (%) - concentration that inhibits 50% of the amplitude of muscular shocks” value is given as 0.043* % and the “Power relative to S (−) ropivacaine” value is listed as 1.63*.
As to `CCCN1CCCC[C@H]1C(=O)Nc1c(C)cccc1C` [S (−) Ropi, (S)-N-(2,6-dimethylphenyl)-1-propyl-2-piperidinocarboxamide], the “effect on PR interval” value in series [1] (even in the concentration of 10 μM) is listed as “do not alter the PR interval”. Further, the “less potent than racemic bupivacaine” value in series [3] is listed as “about 50%”. In addition, in series [2], the “IC50 (%) - concentration that inhibits 50% of the amplitude of muscular shocks” value came to 0.070% and the “Power relative to S (−) ropivacaine” value is 1.0.
